# In US20220339179A1, “TREATMENT OF HR DEFICIENT CANCER” (THE FRANCIS CRICK INSTITUTE LIMITED, priority 2019, published 2022):
# What was measured:
# [1] = system: SUM149 BRCA1mut/PARP1−/− cells; assay: Cell viability assay, SUM149 BRCA1mut/PARP1−/− cells; assay type: cell-based, human; conditions: PARPi-resistant cells; hmdU 2 μM + olaparib; ratio of EC50 values
# DLD1 BRCA2−/− cells = assay: Cell viability assay, DLD1 BRCA2−/− cells; assay type: cell-based; conditions: olaparib 10 nM or hmdU 2 μM, 10 days
# Experimental: (§1) For analysis of cell viability following exposure to olaparib (Selleckchem), deoxyribonucleosides and DNPH1i (N6-benzyladenosine, Carbosynth), cells were seeded in 96-well plates at a density of 100-500 cells per well. Twenty-four hours post-seeding, drug treatments were initiated, and cells were continuously exposed until termination of the experiment. Cell viability was measured using CellTiter-Glo (Promega). The surviving fractions were measured, and drug sensitivity curves were plotted using GraphPad Prism. The following nucleosides were purchased from commercial sources: dU (2′-deoxyuridine), hdU (5-hydroxy-2′-deoxyuridine), hmdU (5-hydroxymethyl-2′-deoxyuridine), mdC (5-methyl-2′-deoxycytidine), hmdC (5-hydroxymethyl-2′-deoxycytidine), cadC (5-carboxy-2-deoxycytidine), fodC (5-formyl-2-deoxycytidine), dl (2′-deoxyinosine), dX (2′-deoxyxanthosine), 8odG (8-oxo-2′-deoxyguanosine), hmU (5 hydroxymethyluridine), hmC (5-hydroxymethyl-cytidine). fodU (5-formyl-2′-deoxyuridine) was synthesized as previously described (Guo et al Org. Biomol. Chem. 11, 1610-1613 (2013).
# [2] = system: DLD1 WT, BRCA2 and DNPH1 single knock-out cell lines; assay: Cell viability assay, DLD1 WT and single knock-out cells; assay type: cell-based; conditions: highest dose tested
# Experimental: as §1
# [3] = system: eHAP WT and DNPH1 k/o cells; assay: Nucleoside composition of genomic DNA by LC-MS; assay type: cell-based, human; conditions: cells treated with exogenous hmdU; DNPH1 k/o vs WT
# Experimental: Cells (5×10^7) were collected and DNA extracted using Gentra Puregene Cell Kit (Qiagen) supplemented with RNAse (Qiagen) and 100 mM tetrahydrouridine (Merck). DNA was digested to mononucleosides by modification of a published protocol (41). Briefly, reactions were carried out in […] buffer containing […] DNA, 50 mM Tris pH 9.0, 20 mM NaCl, 5 mM MgCl2, 1 kU Benzonase, 1 U phosphodiesterase I and 10 U FastAP alkaline phosphatase for 48 hrs at 37° C. The samples were then precipitated with chloroform and labelled standards of deoxyadenosine (dA), deoxycytidine (dC), deoxyguanosine (dG) and deoxythymidine (dT) were spiked for normalization of the signal response from modified deoxynucleosides. Polar phases were analyzed by LC-MS/MS using a using a reverse phase column (100×2.1 mm, 3 μm, Fortis C18, Fortis Technologies) on a Dionex UltiMate LC system coupled to a TSQ Quantiva™ Triple Quadrupole (Thermo Scientific) mass spectrometer with a HESI 11 (heated electrospray ionization) source. The mobile phases consisted of water containing 0.1% acetic acid (mobile phase A) and acetonitrile (mobile phase B). A gradient of 12 min 0-12% B and 1 min 12-60% B was used for the separation of all the modified nucleosides. […]
# eHAP MUS81−/− cells = assay: Cell viability assay (CellTiter-Glo), eHAP MUS81−/− cells; assay type: cell-based, human; conditions: single agent
# Experimental: as §1
# [4] = system: eHAP MUS81−/−DNPH1−/− cells; assay: Cell viability assay (CellTiter-Glo), eHAP MUS81−/−DNPH1−/− cells; assay type: cell-based, human; conditions: nucleoside 200 nM, 6 days, vs MUS81 k/o
# Experimental: as §1
# [5] = system: SUM149 BRCA1mut/53BP1−/− cells; assay: Cell viability assay, SUM149 BRCA1mut/53BP1−/− cells; assay type: cell-based, human; conditions: PARPi-resistant cells; hmdU 2 μM + olaparib; ratio of EC50 values
# DCTD k/o cell lines = assay: Cell viability, DCTD k/o cell lines; assay type: cell-based
# Experimental: as §1
# [6] = system: BRCA2/DNPH1 double knock-out cell lines (DLD1); assay: Cell viability assay, DLD1 BRCA2/DNPH1 double knock-out cells; assay type: cell-based; conditions: absence of a PARP inhibitor; two independent double knock-out lines
# Experimental: as §1
# [7] = system: SUM149 BRCA1mut (parental) cells; assay: Cell viability assay, SUM149 BRCA1mut (parental) cells; assay type: cell-based, human; conditions: 8 days
# Experimental: as §1
# [8] = system: SUM149 WT (revertant) cells; assay: Cell viability assay, SUM149 WT (revertant) cells; assay type: cell-based, human; conditions: hmdU with DNPH1i 0.5 μM or olaparib, 8 days
# Experimental: as §1
# [9] = system: PARP1 chromatin association in eHAP SMUG1−/− cells; assay: PARP trapping assay (chromatin fractionation), eHAP SMUG1−/− cells; assay type: cell-based, human; conditions: MMS 0.01% then olaparib 10 μM 4 h
# Experimental: Briefly, 500.000 cells were seeded onto six-well plates, and treated with 350 nM hmdU or 0.01% MMS for 24 hours at which point cells were either left untreated or treated with 10 μM olaparib for 4 h. Cells were fractionated with the Subcellular Protein Fractionation kit for Cultured Cells (ThermoFisher #78840) according to the manufacturer's instructions. Soluble and chromatin fractions were analysed by immunoblotting for PARP1 (Cell Signaling #9542, rabbit) and yH2AX (Millipore, JBW301) antibodies. Incubation with primary antibody was followed by incubation with a horseradish peroxidase-conjugated secondary antibody and chemiluminescent detection of proteins (Amersham Pharmacia, Cardiff, UK).
smiles,measurement,setting,value
"O=c1[nH]c(=O)n([C@H]2C[C@H](O)[C@@H](CO)O2)cc1CO [hmdU, 5-hydroxymethyl-2′-deoxyuridine]",expansion of the therapeutic window of olaparib by hmdU,[1],3 fold
same,"effect on viability, agent alone",DLD1 BRCA2−/− cells,limited effect on viability
same,sensitivity to hmdU,[2],resistant to the highest dose tested
same,increase in genomic hmdU in DNPH1 k/o cells after hmdU treatment,[3],3 fold
same,"effect on viability, agent alone",eHAP MUS81−/− cells,no effect on viability
same,sensitivity of MUS81/DNPH1 k/o cells to nucleoside treatment (cell viability),[4],hypersensitive
same,expansion of the therapeutic window of olaparib by hmdU,[5],3 fold
same,resistance of DCTD k/o cells to nucleoside treatment,DCTD k/o cell lines,not
same,cells killed by hmdU,[6],over 95%
same,synthetic lethality of hmdU with DNPH1 inhibition,[7]; DNPH1i 0.5 μM,to the same extent as Olaparib alone
same,expansion of the therapeutic window of olaparib by addition of hmdU,"[7]; hmdU 2 μM + olaparib vs olaparib alone, ratio of EC50 values revertant vs BRCA1mut",4 fold
same,"effect on viability, agent alone",[7]; olaparib 250 nM or hmdU 2 μM,limited effect on viability
same,effect of treatment on isogenic WT cells,[8],unaffected
"COS(C)(=O)=O [MMS, methyl methanesulfonate]",difference in PARP trapping or DNA damage signaling between WT and SMUG1-deficient cells,[9],did not observe any difference
